Series [1] concerns the target T1, angiotensin II receptor subtype 2 (AT2) (Bos taurus, UniProt G5E6F7).
T1 construct: receptor: from cerebellar cortex in bovine; from tissue; host or cells: bovine cerebellar cortex
T1 sequence (G5E6F7 1-362): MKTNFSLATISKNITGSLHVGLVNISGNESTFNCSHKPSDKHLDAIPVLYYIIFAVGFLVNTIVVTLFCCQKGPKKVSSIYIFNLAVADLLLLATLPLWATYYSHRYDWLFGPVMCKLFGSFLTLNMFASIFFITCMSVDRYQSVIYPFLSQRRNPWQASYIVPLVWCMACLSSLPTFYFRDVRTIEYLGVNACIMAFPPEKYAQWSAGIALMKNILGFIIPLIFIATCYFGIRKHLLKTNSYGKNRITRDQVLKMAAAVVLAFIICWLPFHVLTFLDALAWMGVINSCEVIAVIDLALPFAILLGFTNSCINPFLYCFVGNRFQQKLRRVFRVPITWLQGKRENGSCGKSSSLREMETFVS
Put plainly: Binding assay, angiotensin II receptor subtype 2 (AT2). More on the design: species or system bovine (cerebellar cortex). The settings on record: read-out: Binding inhibition % in 100 μm, AT2. The procedure: (§1) In this Example, the affinity to the angiotensin II receptor subtype 1 or subtype 2 was evaluated by a binding assay in accordance with the method described in Biochem. Pharmacol., 33, 4057-4062 (1984).
(§2) Specifically, the measurement of the total binding in the presence of each drug was performed as follows:
(§3) A mixture (final volume=0.25 ml) of a drug in a given concentration (the drug was dissolved in DMSO, and diluted to a double volume with a buffer attached to a drug discovery system to prepare sample for the assay; 0.025 ml), a tracer (0.025 ml), and receptors (0.2 ml) was incubated [in the case of the angiotensin II receptor subtype 1 (AT1), at room temperature for 3 hours, and in the case of the subtype 2 (AT2), at 37° C. for 1 hour]. Then, the reaction mixture was filtered with suction (GF/C filter was used in AT1, and GF/B filter was used in AT2). The filter papers after filtration with suction (the tracer bound to the receptors) were counted by a γ-well counter (ARC-500, Aloka). The non-specific bindings were measured by repeating the above method, except that a large excess amount of a displacer was added. The specific binding of the drug in the given concentration was calculated by subtracting the non-specific binding from the total binding, respectively.
(§4) In AT1 and AT2, the percentages to inhibit the bindings of radioactive ligands (tracer) to receptors by the drugs to be tested (IC50 value of concentration to show 50% inhibition, or binding inhibition % in 100 μM) were measured, using the drugs to be tested and control drugs in the given concentration.
receptor: from cerebellar cortex in bovine
tracer: ^125 ITyr^4angiotensin II
control drug: angiotensin II (human)
(displacer): angiotensin II (human)

The test system of series [2] is kidney disease model rats. Put plainly: Renal function indicatory value (action to kidney diseases). It is filed as in vivo, Sprague-Dawley female rats. The note with it: 20 mg/kg/day per os, two weeks; for Creatinine clearance: 24 hours urine, control 0.20; for Creatinine / Urea nitrogen: serum; for Creatinine: control 2.0; for Urea nitrogen: control 100. As for the experimental part:
The kidney disease model rats were prepared as in Example 115. Twenty-five groups (8 rats per group) were sleeked in a manner so that there were no major differences between each group in the serum creatinine value and the urea nitrogen value indicating renal function. The rats in each group were allowed to freely take up feed and water. […] To the rats in the control group, only water was forcedly administered per os every day. After two weeks, 0.2 ml of blood was collected from the carotid artery of the rat under anesthesia, and centrifuged to obtain serum. Using 25 μl of the serum, serum creatinine (Scr) was measured by a creatinine analytical instrument (Beckman). Using 10 μl of the serum, urea nitrogen (BUN) was measured by a BUN analytical instrument (Beckman). Creatinine clearance was evaluated as follows:
After serum creatinine measurement, rats were placed in urinary metabolic cages for 24 hours to collect urine. Urinary creatine concentration (Ucr) was measured by a creatinine analytical instrument, and total volume of urination (Uvol) was also measured. Creatinine clearance (CCr) was calculated by the following formula: [formula]

A further series deals with mice. Description: Acute toxicity, single oral dose. It is filed as in vivo. The procedure:
Five-week-old ICR female mice (5 mice per group) were bred for acclimation for a week. Then, the compounds of the present invention were dissolved or dispersed in an aqueous solution of 0.5% methylcellulose, and orally administered to the mice in a single dosage (500 mg/kg).

Series [3] deals with T2, angiotensin II receptor subtype 1 (AT1) (Oryctolagus cuniculus, UniProt P34976).
T2 construct: receptor: from adrenal glands in rabbits; from tissue; host or cells: rabbit adrenal glands
T2 sequence (P34976 1-359): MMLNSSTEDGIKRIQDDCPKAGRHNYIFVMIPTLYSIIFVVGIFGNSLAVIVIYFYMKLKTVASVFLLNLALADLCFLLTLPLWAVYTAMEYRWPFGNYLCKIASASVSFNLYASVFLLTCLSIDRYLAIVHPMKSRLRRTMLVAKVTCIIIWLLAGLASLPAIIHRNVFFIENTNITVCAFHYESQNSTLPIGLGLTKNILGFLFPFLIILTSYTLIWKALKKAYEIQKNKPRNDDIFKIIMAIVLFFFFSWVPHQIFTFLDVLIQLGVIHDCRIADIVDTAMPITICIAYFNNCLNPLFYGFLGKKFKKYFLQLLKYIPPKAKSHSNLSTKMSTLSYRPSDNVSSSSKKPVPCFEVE
Description: Binding assay, angiotensin II receptor subtype 1 (AT1). More on the design: species or system rabbit (adrenal glands). The note with it: for inhibition at 100 µM: AT1, rabbit adrenal glands. The procedure:
as §1, §2, §3, §4

The subject of series [4] is kidney disease model rats. Put plainly: Action to depress blood pressure (tail cuff method). Type of series: in vivo, Sprague-Dawley female rats. The settings on record: systolic, average, 20 mg/kg per os, two days from administration; control (water) 203. The procedure: The compounds of the present invention and the reference substance were forcedly administered per os to kidney disease model rats, and the action to depress blood pressure was observed. The kidney disease model rats were prepared by ligature of branches of renal artery in accordance with the conventional method, that is, the left hilum renalis of Sprague-Dawley female rats was exposed under anesthesia, and one of four secondary branches of renal artery was left unligated, while the remaining three branches were ligated, respectively. After a week, the hilum renalis (artery, vein, and ureter) of the right kidney were further ligated to thereby prepare the rats whose renal function was lowered to approximately 1/8 of the normal function. Each group consisted of eight rats. The drugs to be tested (20 mg/kg) were administered to each administering group, and only water was administered to control group. After two days from the administration, the systolic blood pressure was measured by the tail cuff method using a blood pressure measuring apparatus (UR5000; Ueda).

The subject of series [5] is kidney disease model rats. Put plainly: Action to survival time of kidney diseased animals. Type of series: in vivo, Sprague-Dawley female rats. The note with it: 20 mg/kg/day per os, observation eight weeks (upper limit); control 5.0. The procedure: The kidney disease model rats were prepared as in Example 115. Twenty-five groups (8 rats per group) were prepared in a manner so that there was no major difference between the groups in the serum creatinine value and the urea nitrogen value indicating renal function. The rats in each group were allowed to freely take up feed and water. […] To the rats in the control group, only water was forcedly administered per os every day. If kidney diseases are aggravated, the rat will die of uremia. Thus, the survival time was observed as comprehensive indication of the improvement effect on the kidney diseases. The observation period was eight weeks. Thus if all rats survived, the average survival time is eight weeks and it is an upper limit.

The mark [6] stands for this setting: 100 μM, AT2, bovine cerebellar cortex, 37° C. 1 hour.
[7] abbreviates: tracer 3H angiotensin II, room temperature 3 hours, read-out: IC50 AT1.
Where [8] appears, read: mice, single oral 500 mg/kg, observed for 6 days, 5 per group.

Like-named read-outs stand apart in the source and are kept apart here.

Turning to `CCCCC(=O)N(Cc1ccc(C(=O)O)cc1)c1cc(C(=O)N2CCOCC2)ccc1C` [Compound No. 278, 4-methyl-3-N-[[4-(carboxyphenyl)methyl]valeramido]benzoic acid morpholide], the inhibition at 100 µM in series [1] (setting [6]) is 0%. In series [2], this molecule showed a Creatinine clearance of 0.36 mL/min, a Creatinine of 1.8 mg/dL and a Urea nitrogen of 73 mg/dL. The “Number of deaths/number of survivals” value in the series on mice (mouse, in vivo, po, 500 mg/kg) is recorded as 0/5. The inhibition at 100 µM in series [3] was found to be 4%. Moreover, the Blood pressure in series [4] was 198 mmHg. In series [5], this molecule yielded an Average survival time of 7.0 weeks.
For the molecule `CCCCC(=O)N(Cc1ccc(C(=O)O)cc1)c1cc(C(=O)N2CCOCC2)ccc1C(C)C` [Compound No. 372, 3-N-[[(4-carboxyphenyl)methyl]valeramido]-4-isopropylbenzoicacid morpholide], the inhibition at 100 µM in series [1] (setting [6]) amounted to 0%. For the same molecule, in series [2], the Creatinine clearance is 0.36 mL/min, the Creatinine was 1.7 mg/dL and the Urea nitrogen is 72 mg/dL. Also, the “Number of deaths/number of survivals” value in the series with mice (mouse, in vivo, po, 500 mg/kg) was 0/5. Also, 100 µM produced 2% inhibition in series [3]. The molecule further gave a Blood pressure in series [4] of 190 mmHg. In addition, the Average survival time in series [5] came out at 7.6 weeks.
Regarding `CCCCC(=O)N(Cc1ccc(C(=O)O)cc1)c1cc(C(=O)N2CCOCC2)ccn1` [Compound No. 467, 2-N-[[(4-carboxyphenyl)methyl]valeramido]isonicotinic acid morpholide], the inhibition at 100 µM in series [1] (setting [6]) stood at 0%. Also, in series [2], the Creatinine clearance was determined as 0.25 mL/min, the Creatinine worked out at 1.8 mg/dL and the Urea nitrogen is 74 mg/dL. Besides, in the series with mice (mouse, in vivo, po, 500 mg/kg), the “Number of deaths/number of survivals” value is listed as 0/5. In series [3], this molecule came in with an inhibition at 100 µM of 16%. Besides, the Blood pressure in series [4] is on record as 200 mmHg. The Average survival time in series [5] is given as 7.0 weeks.
In the case of `CCCCCN(Cc1ccc(C(=O)O)cc1)c1cc(C(=O)N2CCOCC2)ccn1` [Compound No. 535, 2-[N-n-amyl-N-(4-carboxyphenyl)methyl]aminoisonicotinic acid morpholide], the inhibition at 100 µM in series [1] (setting [6]) was found to be 0%. Moreover, in series [2], the Creatinine clearance was found to be 0.38 mL/min, the Creatinine amounted to 1.5 mg/dL and the Urea nitrogen is 72 mg/dL. Besides, the “Number of deaths/number of survivals” value in the series with mice (mouse, in vivo, po, 500 mg/kg) is 0/5. The IC50 in series [3] (setting [7]) came out at 3.8 µM. In addition, in series [4], the Blood pressure worked out at 195 mmHg. In series [5], this molecule displayed an Average survival time of 7.6 weeks.
As to `CCCCC(=O)Nc1ccc(C(=O)N2CCOCC2)cc1NCc1ccc(-c2ccccc2-c2nnn[nH]2)cc1` [Compound No. 585, 3-[[2'-(1H-tetrazol-5-yl)biphenyl-4-yl]methylamino]-4-valeramidobenzoic acid morpholide], the inhibition at 100 µM in series [1] (setting [6]) came out at 0%. In series [2], this molecule returned a Creatinine clearance of 0.35 mL/min, a Creatinine of 1.6 mg/dL and a Urea nitrogen of 72 mg/dL. Also, the “Number of deaths/number of survivals” value with mice (setting [8]) is reported as 0/5. Besides, the IC50 in series [3] (setting [7]) amounted to 1.7 µM. The same molecule yielded a Blood pressure in series [4] of 196 mmHg. The molecule further had an Average survival time in series [5] of 7.3 weeks.
`CCCCC(=O)Nc1ccc(C(=O)N(CC)CC)cc1NCc1ccc(-c2ccccc2-c2nn[nH]n2)cc1` [Compound No. 586, [3-[[2'-(1H-tetrazol-5-yl)biphenyl-4-yl]methylamino]-4-valeramido]benzoic acid diethylamide]: in series [1], the inhibition at 100 µM worked out at 0%. Further, in series [2], the Creatinine clearance is 0.33 mL/min, the Creatinine is 1.7 mg/dL and the Urea nitrogen stood at 76 mg/dL. For the same molecule, in the series on mice (setting [8]), the “Number of deaths/number of survivals” value is recorded as 0/5. The same molecule came in with an IC50 in series [3] of 1.2 µM. In series [4], this molecule returned a Blood pressure of 198 mmHg. The molecule further showed an Average survival time in series [5] of 6.8 weeks.
For the molecule `CCCCC(=O)Nc1ccc(C(=O)N2CCOCC2)cc1OCc1ccc(-c2ccccc2-c2nnn[nH]2)cc1` [Compound No. 587, 3-[[2'-(1H-tetrazol-5-yl)biphenyl-4-yl]methyloxy]-4-valeramidobenzoic acid morpholide], in series [1] (setting [6]), the inhibition at 100 µM is 0%. In series [2], this molecule registered a Creatinine clearance of 0.34 mL/min, a Creatinine of 1.7 mg/dL and a Urea nitrogen of 77 mg/dL. Besides, in the series with mice (setting [8]), the “Number of deaths/number of survivals” value was 0/5. In addition, the IC50 in series [3] (setting [7]) was 7.9 µM. The molecule also returned a Blood pressure in series [4] of 201 mmHg. The Average survival time in series [5] was found to be 7.0 weeks.
For `CCCCC(=O)N(Cc1ccc(-c2ccccc2-c2nn[nH]n2)cc1)c1cc(C(=O)N2CCOCC2)ccc1N(C)C` [Compound No. 591, 4-dimethylamino-3-N-[2'-[(1H-tetrazol-5-yl)biphenyl-4-yl]methyl]valeramidobenzoic acid morpholide], the inhibition at 100 µM in series [1] (setting [6]) was 0%. In series [2], this molecule returned a Creatinine of 1.6 mg/dL and a Urea nitrogen of 76 mg/dL. The “Number of deaths/number of survivals” value in the series on mice (mouse, in vivo, po, 500 mg/kg) is 0/5. In series [3], the inhibition at 100 µM is 35%. The same molecule yielded a Blood pressure in series [4] of 199 mmHg. In series [5], this molecule came in with an Average survival time of 7.3 weeks.

One may read the inhibition as the drop in the measured response relative to a control, in per cent. As usually defined, the IC50 is the concentration at which inhibition is half-maximal.

Values taken from patent US5739131A, “Benzene derivatives and pharmaceutical composition” (Kureha Chemical Industry Co., Ltd., priority 1994, dated 1998).
